Measured values as given in patent US7713986B2, “Compounds and methods for treatment of chemotherapy-induced anemia” (priority 2006, dated 2010).

How the values were obtained:
[1] = Body weight of H-460 tumor-bearing nude mice given chemotherapeutic agent with or without Compound A; assay type: in vivo, female Harlan nude mice
Description: To examine the effects of compounds and methods of the present invention on weight loss associated with chemotherapeutic agents, the following study was performed. This experiment was carried out essentially as described above in Example 2. […] Cages, food, and bedding were autoclaved. Animal diets were obtained from Harlan Teklad (Madison, Wis.).
Body weights were monitored over time for individual animals. Changes in individual animal body weights over time are shown in FIGS. 3-8, and are presented as percent of initial body weight (treatment day 1), which was set at 100%.

[2] = tested on: female Harlan nude mice implanted with H460 tumor cells; assay: H-460 tumor-bearing nude mice given chemotherapeutic agent with or without Compound A: premature morbidity and hematocrit
Description: To examine the effect of methods and compounds of the present invention on treatment of chemotherapy-induced anemia, the following study was performed. The human H-460 lung cancer cell line used was obtained from the National Cancer Institute. (Brower et al., (1986) Cancer Res 46:798-806.) Animals were maintained in a HEPA-filtered environment during the experimental period. Cages, food, and bedding were autoclaved. Animal diets were obtained from Harlan Teklad (Madison, Wis.). Hydrochloric acid, 0.15% (v/v), was added to the drinking water.
Compounds of the invention were pre-formulated in an aqueous vehicle consisting of 0.1% (w/w) Polysorbate 80 (JT Baker) and 0.5% (w/w) high viscosity carboxymethyl cellulose sodium (Spectrum) to achieve a final 10 ml/kg dosing (oral gavage).
A stock tumor was established by subcutaneously injecting a cell suspension into nude mice. The resulting tumor was maintained in nude mice subcutaneously as tumor stock prior to use. Tumor implantation was performed when the stock tumors were in log phase of growth. Before implantation, tumor tissue was harvested from stock mice and placed in RPMI-1640 medium. Necrotic tissues were dissected away and viable tissues were cut into 1-2 mm^2 pieces. In these experiments, 1×10^7H460 tumor cells were implanted subcutaneously to the flanks of female Harlan nude mice.
Treatment (administration of compounds of the present invention) was initiated when the inoculated tumors reached approximately 100 mm^3, and continued for four weeks.
These studies followed the guidelines of the Tumor Growth Delay (TGD) type, using a protocol that required individual animals to be humanely euthanized after reaching a set endpoint of tumor volume greater than or equal to 2 cc. At this endpoint, blood was also sampled and hematocrit (HCT) was determined.
These two chemotherapeutic are representative of two broad classes of conventional anti-tumor therapeutics: microtubule poisons (Paclitaxcel); and DNA-directed agents, including the sub-classification of DNA alkylating agents (Carboplatin). […]

[3] = tested on: animal model of chemotherapy-induced anemia; assay type: in vivo, Sprague Dawley male rats
Description: Fifteen Sprague Dawley male rats (280-300 g) were obtained from Charles River Laboratories. On day 0, rats were treated by intraperitoneal (i.p.) injection with a single dose of saline (control; n=3) at 8 ml/kg, or Cisplatin (CP; Bedford Laboratories, Bedford Ohio) at either 7 mg/kg (7 ml/kg; n=6) or 10 mg/kg (10 ml/kg; n=6). Blood samples (0.2 ml) were collected on days 5, 9, and 16 as follows. Animals were anesthetized with isoflurane and 0.2 ml of blood was collected from the tail vein into a MICROTAINER EDTA-2K tube (Becton-Dickinson). Blood samples were processed for hematocrit as described above to determine the degree of anemia produced in each animal.
Beginning on day 19 of the study, one half of each cisplatin-treated group (n=3×2) and all of the control group were treated by oral gavage once per day for 5 consecutive days with a 2 ml/kg volume of 0.5% CMC (Sigma-Aldrich). […] Blood samples (0.5 ml) were collected as described above immediately prior to treatment and 4 days after treatment initiation. Blood samples were analyzed for CBC and reticulocyte counts as described above. On day 9 after initiation of oral treatment, a blood sample (0.1 ml) was collected and processed for hematocrit as described above.

N.N.O=C([O-])C1(C(=O)[O-])CCC1.[Pt+2] [Carboplatin]
body weight pattern compared to non-treated vehicle control animals ([1]; chemotherapeutic agent alone (FIG. 5, FIG. 7)): pattern of weight loss
animals with more than a 10% weight gain at any time during the study ([1]; number of animals of 10): 3 of 10
animals that ended the study at a body weight below that at the start ([1]; number of animals of 10 per group): 7 of 10
hematocrit over time ([2]; Carboplatin alone (closed circles in FIG. 2)): significant decrease
# animals morbid prematurely ([2]; Cmpd A 60 mg/kg p.o., Carboplatin 120 mg/kg i.p. Q7d): 6/10
# animals reaching study endpoint ([2]; Cmpd A 60 mg/kg p.o., Carboplatin 120 mg/kg i.p. Q7d, endpoint tumor volume >= 2 cc): 4/10

O=C(O)CNC(=O)c1nc(Cl)c2ccccc2c1O [Compound A, N—((1-chloro-4-hydroxy-isoquinoline-3-carbonyl)-amino)-acetic acid]
body weight change at end of study ([1]; mouse, in vivo): overall net weight gain
body weights during the time course of the study ([1]; mouse, in vivo, 60 mg/kg): increased gradually
hematocrit in Cisplatin-treated animals ([3]; 4 days after initiating treatment with Compound A, oral gavage once per day for 5 days (FIG. 1A)): increased hematocrit
percent circulating reticulocytes ([3]; Cisplatin-treated animals, compared to those without Compound A (FIG. 1B)): increased
hematocrit levels versus non-treated counterparts ([3]; Cisplatin-treated rats, day 9 post-treatment (FIG. 1A)): significantly higher

CC(=O)O[C@H]1C(=O)[C@@]2(C)[C@H]([C@H](OC(=O)c3ccccc3)[C@]3(O)C[C@H](OC(=O)[C@H](O)[C@@H](NC(=O)c4ccccc4)c4ccccc4)C(C)=C1C3(C)C)[C@]1(OC(C)=O)CO[C@@H]1C[C@@H]2O [Paclitaxel]
animals that ended the study at a body weight below that at the start ([1]; mouse, in vivo): 2 of 10
body weight pattern compared to non-treated vehicle control animals ([1]; mouse, in vivo): pattern of weight loss
